In series [1] the test system is IL-6, IL-2, and IFNγ signaling. Kind of series: Cellular assays of Assays 3 to 6 (summary statement). Format: cell-based. Conditions: Homo sapiens, cellular assays described in Assays 3 to 6. How it is done:
The potency of the test compound for inhibition of interleukin-2 (IL-2)/anti-CD3 stimulated interferon gamma (IFNγ) was measured in human peripheral blood mononuclear cells (PBMCs) isolated from human whole blood (Stanford Blood Center). Because IL-2 signals through JAK, this assay provides a measure of JAK cellular potency.
The potency of the test compound for inhibition of interleukin-2 (IL-2)/anti-CD3 stimulated STAT5 phosphorylation was measured in CD4-positive (CD4+) T cells in human peripheral blood mononuclear cells (PBMCs) isolated from human whole blood (Stanford Blood Center) using flow cytometry. Because IL-2 signals through JAK, this assay provides a measure of JAK cellular potency.
The potency of the test compound for inhibition of interleukin-6 (IL-6) stimulated CCL2 (MCP-1) production was measured in human peripheral blood mononuclear cells (PBMCs) isolated from human whole blood (Stanford Blood Center). Because IL-6 signals through JAK, this assay provides a distal measure of JAK cellular potency.
The potency of the test compound for inhibition of interferon gamma (IFNγ) stimulated STAT1 phosphorylation was measured in CD14-positive (CD14+) monocytes derived from human whole blood (Stanford Blood Center) using flow cytometry. Because IFNγ signals through JAK, this assay provides a measure of JAK cellular potency.

Series [2] relates to IFNγ induced IP-10. Briefly: Pharmacodynamic assay: inhibition of IFNγ-induced IP-10 in rabbit eyes. Conditions: Form 1 suspension, 0.9 mg intravitreal, 1 week pre-treatment, New Zealand White rabbits. Format: in vivo. The procedure: The ability of a single intravitreal administration of test compound to inhibit interferon-gamma (IFNγ) induced IP-10 protein levels was measured in rabbit vitreous and retina/choroid tissues.
A suspension formulation was prepared by combining compound 1 of Example 2 (Form 1), with 0.5% hydroxypropyl methylcellulose (HPMC E5), 0.02% Tween 80, and 9 mg/mL sodium chloride in purified water to attain a target concentration of 20 mg/mL.
Male, New Zealand White rabbits (Liveon Biolabs, India) were used for the studies. Animals were acclimated after arrival at the research facilities (Jubilant Biosys Ltd., India). Each rabbit was given a total of two intravitreal (IVT) injections with a total dose volume of 50 μL per eye. The first IVT injection (45 μL per eye) delivered 0.9 mg of test compound or vehicle. One week later, a second IVT injection (5 μL per eye) delivered IFNγ (1 μg/eye; stock solution 1 mg/mL; Kingfisher Biotech) or vehicle for the induction of IP-10. […]
Tissues were collected 24 hours after the second IVT injection with IFNγ. Vitreous humor (VH) and retina/choroid tissues (R/C) were collected and homogenized, and IP-10 protein levels were measured using a rabbit CXCL10 (IP-10) ELISA kit (Kingfisher Biotech). The percent inhibition of IFNγ-induced IP-10 was calculated in comparison to the vehicle/vehicle and vehicle/IFNγ groups.

Series [3] in a line: Dermal pharmacokinetics in mouse skin. To be noted: mice, model cream and ointment formulations, without detectable plasma exposure. Format: in vivo. From the text:
The objective of this assay was to determine the epidermal, dermal and plasma pharmacokinetics of a test compound following a 24 hr exposure to intact mouse or mini-pig skin.
Twenty-four hours prior to dosing the hair was shaved from the back of 25 g male Balb/c mice exposing an area at of least 6 cm^2 (about 10% of body surface) and, in a separate experiment, of 10 kg Gottingen mini-pigs exposing an area of at least 450 cm^2 (about 10% of body surface). At time zero, following isoflurane anesthesia, the test compound was applied to the back of mice or mini-pigs at a dose of 25 μL/cm^2. The skin was covered with an adhesive cover to prevent loss of compound to the cage or bedding.
Following 24 h exposure, the backs were gently washed with soap and water to remove non-absorbed drug and patted dry. Immediately following this washing, blood was drawn by cardiac puncture from the mice and via venipuncture from the mini-pigs. The outer skin (stratum corneum) was then removed by adhesive tape stripping. Upon exposure of the epidermis a 0.5 cm punch biopsy was taken. The epidermis and dermis were quickly separated, weighed and snap frozen. […]
Epidermis and dermis samples were homogenized in 1:10 (w/v) water using a Covaris ultrasonic homogenizer. Samples were extracted in 3 volumes of acetonitrile and quantified against a standard curve via LC-MS analysis.

The target in series [4] is T1, AURKA (Homo sapiens, UniProt O14965).
T1 construct: made in house; host or cells: T7 phage in E. coli (BL21-derived) or HEK-293
T1 sequence (O14965 whole entry): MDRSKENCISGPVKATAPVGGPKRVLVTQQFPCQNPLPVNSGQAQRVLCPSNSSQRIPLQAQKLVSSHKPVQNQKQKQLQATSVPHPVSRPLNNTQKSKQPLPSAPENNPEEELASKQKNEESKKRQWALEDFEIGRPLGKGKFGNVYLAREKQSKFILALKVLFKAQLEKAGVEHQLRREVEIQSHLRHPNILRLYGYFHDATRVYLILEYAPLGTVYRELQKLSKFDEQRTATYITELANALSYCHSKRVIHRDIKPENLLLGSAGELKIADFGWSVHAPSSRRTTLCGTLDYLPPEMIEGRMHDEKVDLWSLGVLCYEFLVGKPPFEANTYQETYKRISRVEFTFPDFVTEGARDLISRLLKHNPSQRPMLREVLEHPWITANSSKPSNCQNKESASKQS
Briefly: Kinome screen, AURKA. Format: binding. Conditions: screened at 1 μM. How it is done: Kinase-tagged T7 phage strains were grown in parallel in 24-well blocks in an E. coli host derived from the BL21 strain. E. coli were grown to log-phase and infected with T7 phage from a frozen stock (multiplicity of infection=0.4) and incubated with shaking at 32° C. until lysis (90-150 minutes). The lysates were centrifuged (6,000×g) and filtered (0.2 μm) to remove cell debris. The remaining kinases were produced in HEK-293 cells and subsequently tagged with DNA for qPCR detection.
Streptavidin-coated magnetic beads were treated with biotinylated small molecule ligands for 30 minutes at room temperature to generate affinity resins for kinase assays. The liganded beads were blocked with excess biotin and washed with blocking buffer (SeaBlock (Pierce), 1% BSA, 0.05% Tween 20, 1 mM DTT) to remove unbound ligand and to reduce non-specific phage binding. […] Test compounds were prepared as 40× stocks in 100% DMSO and directly diluted into the assay. All reactions were performed in polypropylene 384-well plates in a final volume of 0.04 ml. […] The beads were then re-suspended in elution buffer (1×PBS, 0.05% Tween 20, 0.5 μM non-biotinylated affinity ligand) and incubated at room temperature with shaking for 30 minutes. The kinase concentration in the eluates was measured by qPCR.

pIC50: −log10 of the molar value. Read-outs that look alike come from different tables or passages of the source.

On to `CCc1cc(O)c(F)cc1-c1cc(F)c2c(-c3nc4c([nH]3)CCN(C(=O)CN3CCOCC3)C4)n[nH]c2c1` [Compound 1, 1-(2-(6-(2-ethyl-5-fluoro-4-hydroxyphenyl)-4-fluoro-1H-indazol-3-yl)-1,4,6,7-tetrahydro-5H-imidazo[4,5-c]pyridin-5-yl)-2-morpholinoethan-1-one], for which the pIC50 (in general, the IC50 on a negative log10 scale, so that one unit is a factor of ten) in series [1] (read-out: IC50 for inhibition of IL-6, IL-2, and IFNγ signaling) was at least 6.40. In addition, in series [1] (read-out: pIC50 for inhibition of IL-6, IL-2, and IFNγ signaling (converted)), the IC50 is at most 398 nM. Further, in series [2], the “inhibition of IFNγ-induced IP-10 in retina/choroid tissues” value was found to be 80% and the “inhibition of IFNγ-induced IP-10 in vitreous humor” value was found to be 81%. Further, the “duration of sustained dermal levels” value in series [3] is given as “at least 2 days”. Besides, the inhibition – broadly, the change of the read-out against control, counted positive when it falls – at 1 µM in series [4] turned out to be 11%.
